US8431596B2 (Cancer Research Technology Limited, priority 2007, dated 2013)
pIC50: −log10 of the molar value.

Target: T1, AXL (human catalytic domain) (Homo sapiens, UniProt P30530)
T1 construct: purchased Upstate Ltd. 14-512
T1 sequence (P30530 473-894): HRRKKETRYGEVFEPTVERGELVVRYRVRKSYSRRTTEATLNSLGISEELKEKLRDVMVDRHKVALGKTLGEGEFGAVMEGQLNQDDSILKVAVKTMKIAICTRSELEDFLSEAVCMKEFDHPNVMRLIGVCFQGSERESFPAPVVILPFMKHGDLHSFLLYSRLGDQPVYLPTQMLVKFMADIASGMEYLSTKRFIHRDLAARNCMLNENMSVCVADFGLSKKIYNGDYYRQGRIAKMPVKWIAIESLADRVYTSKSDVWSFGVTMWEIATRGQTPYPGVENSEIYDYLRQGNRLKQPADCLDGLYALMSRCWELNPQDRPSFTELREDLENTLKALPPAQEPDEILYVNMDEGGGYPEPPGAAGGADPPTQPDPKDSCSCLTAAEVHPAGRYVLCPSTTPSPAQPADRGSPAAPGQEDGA
Assay: AXL (human catalytic domain) Enzyme Activity Assay (IMAP fluorescence polarisation)
Assay type: biochemical
In short: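 IMAP FP readout (Ex485/Em535, after overnight binding) measured inhibition of the human AXL catalytic domain (aa473-894, 15 nM final) acting on 100 nM 5FAM-CSK-tide at 150 μM ATP, equal to KM. Reactions ran 60 min at room temperature in pH 7.0 HEPES buffer; IC50 from 10-point curves.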

[1] = first data set, recombinant AXL isoform 1 aa473-894, 150 μM ATP
[2] = further data set (WW-001 through WW-169, XX-001 through XX-469, YY-001 through YY-016, ZZ-001 through ZZ-003), 150 μM ATP

| SMILES | pIC50 [1] | pIC50 [2] |
| --- | --- | --- |
| COc1ccc(-c2cccc3nc(Nc4ccc(OCCN(C)C)cc4)nn23)cc1 [XX-006] | > 6.00 | 6.00 to 7.00 |
| COc1ccc(-c2cccc3nc(Nc4ccc(OC)nc4)nn23)cc1 [XX-010] | 5.00 to 6.00 | – |
| CC(C)Oc1ccc(-c2cccc3nc(Nc4ccc(OCCN5CCCC5)cc4)nn23)cc1 [XX-012] | > 6.00 | 6.00 to 7.00 |
| COc1ccc(-c2cccc3nc(Nc4cccc(OCCN5CCOCC5)c4)nn23)cc1 [XX-014] | > 6.00 | 6.00 to 7.00 |
| COc1ccc(-c2cccc3nc(Nc4ccc(OCCN5CCCCC5)cc4)nn23)cc1 [XX-019] | > 6.00 | ≥ 7.00 |
| COc1ccc(-c2cccc3nc(Nc4ccc(N5CCNCC5)cc4)nn23)cc1 [XX-023, [5-(4-Methoxy-phenyl)-[1,2,4]triazolo[1,5-a]pyridin-2-yl]-(4-piperazin-1-yl-phenyl)-amine] | > 6.00 | ≥ 7.00 |
| COc1ccc(-c2cccc3nc(Nc4ccc(N5CCOCC5)cc4)nn23)cc1 [XX-024] | 5.00 to 6.00 | ≥ 7.00 |
| COc1ccc(-c2cccc3nc(Nc4ccc(OCCNCCO)cc4)nn23)cc1 [XX-026] | > 6.00 | 6.00 to 7.00 |
| COc1ccc(-c2cccc3nc(Nc4ccc(OCCNCCN(C)C)cc4)nn23)cc1 [XX-027] | > 6.00 | 6.00 to 7.00 |
| COc1ccc(-c2cccc3nc(Nc4ccc(OCCNc5ccncc5)cc4)nn23)cc1 [XX-028] | > 6.00 | 6.00 to 7.00 |
| COCCNCCOc1ccc(Nc2nc3cccc(-c4ccc(OC)cc4)n3n2)cc1 [XX-031] | > 6.00 | 6.00 to 7.00 |
| COc1ccc(-c2cccc3nc(Nc4ccc(OCCNCc5ccncc5)cc4)nn23)cc1 [XX-032] | > 6.00 | ≥ 7.00 |
| COc1ccc(-c2cccc3nc(Nc4ccc(OCCNCc5ccc(N)cc5)cc4)nn23)cc1 [XX-034] | > 6.00 | 6.00 to 7.00 |
| CNC(=O)COc1ccc(Nc2nc3cccc(-c4ccc(OC)cc4)n3n2)cc1 [XX-035] | 5.00 to 6.00 | ≥ 7.00 |
| COc1ccc(-c2cccc3nc(Nc4cccc(C(=O)NCCN(C)C)c4)nn23)cc1 [XX-037] | > 6.00 | ≥ 7.00 |
| COc1ccc(-c2cccc3nc(Nc4ccc(OCCCN5C(=O)c6ccccc6C5=O)cc4)nn23)cc1 [XX-039, 2-(3-{4-[5-(4-methoxy-phenyl)-[1,2,4]triazolo[1,5-a]pyridin-2-ylamino]-phenoxy}-propyl)-isoindole-1,3-dione] | – | 6.00 to 7.00 |
| CNCCCOc1ccc(Nc2nc3cccc(-c4ccc(OC)cc4)n3n2)cc1 [XX-040] | > 6.00 | – |
| COc1ccc(-c2cccc3nc(Nc4cccc(C(=O)NCCO)c4)nn23)cc1 [XX-042] | – | 6.00 to 7.00 |

| SMILES | pIC50 [1] | pIC50 [2] |
| --- | --- | --- |
| c1cc(-c2ccc3c(c2)CCO3)n2nc(Nc3ccc(OCCN4CCCC4)cc3)nc2c1 [XX-044] | > 6.00 | – |
| COc1ccc(-c2cccc3nc(Nc4ccc(OCCN)cc4)nn23)cc1 [XX-046] | > 6.00 | ≥ 7.00 |
| c1cc(-c2ccc3c(c2)OCO3)n2nc(Nc3ccc(OCCN4CCCCC4)cc3)nc2c1 [XX-047] | > 6.00 | 6.00 to 7.00 |
| CN(C)CCOc1ccc(Nc2nc3cccc(-c4ccc5c(c4)OCO5)n3n2)cc1 [XX-048] | > 6.00 | 6.00 to 7.00 |
| c1cc(-c2ccc3occc3c2)n2nc(Nc3ccc(OCCN4CCCCC4)cc3)nc2c1 [XX-050] | > 6.00 | ≥ 7.00 |
| CN(C)CCOc1ccc(Nc2nc3cccc(-c4ccc5occc5c4)n3n2)cc1 [XX-051] | > 6.00 | ≥ 7.00 |
| CN(C)CCOc1ccc(Nc2nc3cccc(-c4ccc5c(c4)CCO5)n3n2)cc1 [XX-053] | > 6.00 | ≥ 7.00 |
| CNc1ccc(Nc2nc3cccc(-c4ccc(OC)cc4)n3n2)cc1 [XX-056] | 5.00 to 6.00 | 5.00 to 6.00 |
| c1cc(-c2ccc3occc3c2)n2nc(Nc3ccc(N4CCNCC4)cc3)nc2c1 [XX-058] | > 6.00 | ≥ 7.00 |
| c1cc(-c2ccc3c(c2)CCO3)n2nc(Nc3ccc(N4CCNCC4)cc3)nc2c1 [XX-059] | > 6.00 | 6.00 to 7.00 |
| c1cc(-c2ccc3c(c2)OCCO3)n2nc(Nc3ccc(N4CCNCC4)cc3)nc2c1 [XX-060] | > 6.00 | ≥ 7.00 |
| COc1ccc(-c2cccc3nc(Nc4cccc(N)c4)nn23)cc1 [XX-061, N-[5-(4-Methoxy-phenyl)-[1,2,4]triazolo[1,5-a]pyridin-2-yl]-benzene-1,3-diamine] | 5.00 to 6.00 | 5.00 to 6.00 |
| COc1ccc(-c2cccc3nc(Nc4ccc5c(c4)OCCCO5)nn23)cc1 [XX-062] | 5.00 to 6.00 | 5.00 to 6.00 |
| COc1ccc(-c2cccc3nc(Nc4ccc(S(N)(=O)=O)cc4)nn23)cc1 [XX-063] | 5.00 to 6.00 | 5.00 to 6.00 |
| COc1ccc(-c2cccc3nc(Nc4ccc(OCCN(C)Cc5ccccc5)cc4)nn23)cc1 [XX-064] | > 6.00 | 6.00 to 7.00 |
| COc1ccc(-c2cccc3nc(Nc4ccc(OCCN(C)Cc5ccc(N)cc5)cc4)nn23)cc1 [XX-067] | > 6.00 | ≥ 7.00 |
| NCc1cc2cc(Nc3nc4cccc(-c5ccc6c(c5)OCCO6)n4n3)ccc2o1 [XX-068] | > 6.00 | ≥ 7.00 |
| Cc1cc(Nc2nc3cccc(-c4ccc5c(c4)OCCO5)n3n2)ccc1OCC(N)=O [XX-071] | 5.00 to 6.00 | 5.00 to 6.00 |

Now from value to compound:

| pIC50 [1] | pIC50 [2] | SMILES |
| --- | --- | --- |
| > 6.00 | ≥ 7.00 | COc1ccc(-c2cccc3nc(Nc4ccc(N)cc4)nn23)cc1 [XX-007] |
| – | 6.00 to 7.00 | COc1ccc(-c2cccc3nc(Nc4cccc(C(C)=O)c4)nn23)cc1 [XX-008] |
| > 6.00 | 5.00 to 6.00 | COc1ccc(-c2cccc3nc(Nc4ccc(OCCO)cc4)nn23)cc1 [XX-011, 2-{4-[5-(4-methoxy-phenyl)-[1,2,4]triazolo[1,5-a]pyridin-2-ylamino]-phenoxy}-ethanol] |
| > 6.00 | 6.00 to 7.00 | COc1ccc(-c2cccc3nc(Nc4ccc5c(c4)OCCN5C)nn23)cc1 [XX-013] |
| > 6.00 | 6.00 to 7.00 | COc1ccc(-c2cccc3nc(Nc4cccc(OCCn5ccnc5)c4)nn23)cc1 [XX-015, [3-(2-Imidazol-1-yl-ethoxy)-phenyl]-[5-(4-methoxy-phenyl)-[1,2,4]triazolo[1,5-a]pyridin-2-yl]-amine] |
| > 6.00 | 6.00 to 7.00 | COc1ccc(-c2cccc3nc(Nc4ccc(OCCn5ccnc5)cc4)nn23)cc1 [XX-016] |
| > 6.00 | 6.00 to 7.00 | Cn1cc(-c2cccc3nc(Nc4ccc(OCCN5CCCC5)cc4)nn23)cn1 [XX-017] |
| > 6.00 | 6.00 to 7.00 | c1cc(-c2ccc3c(c2)OCCO3)n2nc(Nc3ccc(OCCN4CCCC4)cc3)nc2c1 [XX-018] |
| > 6.00 | ≥ 7.00 | c1cc(-c2ccc3occc3c2)n2nc(Nc3ccc(OCCN4CCCC4)cc3)nc2c1 [XX-020] |
| > 6.00 | ≥ 7.00 | c1cc(-c2ccc3c(c2)OCO3)n2nc(Nc3ccc(OCCN4CCCC4)cc3)nc2c1 [XX-021] |
| > 6.00 | 6.00 to 7.00 | CNCCOc1ccc(Nc2nc3cccc(-c4ccc(OC)cc4)n3n2)cc1 [XX-022] |
| > 6.00 | 6.00 to 7.00 | COc1ccc(-c2cccc3nc(Nc4ccc(OCCNCc5ccccn5)cc4)nn23)cc1 [XX-029] |
| > 6.00 | 6.00 to 7.00 | CCc1nnc(NCCOc2ccc(Nc3nc4cccc(-c5ccc(OC)cc5)n4n3)cc2)[nH]1 [XX-030] |
| > 6.00 | 6.00 to 7.00 | COc1ccc(-c2cccc3nc(Nc4ccc(OCCNCc5cccnc5)cc4)nn23)cc1 [XX-033] |
| > 6.00 | 5.00 to 6.00 | COc1ccc(-c2cccc3nc(Nc4ccc(C(=O)NCCN(C)C)cc4)nn23)cc1 [XX-036] |
| > 6.00 | ≥ 7.00 | c1cc(-c2ccc(N3CCOCC3)cc2)n2nc(Nc3ccc(OCCN4CCCC4)cc3)nc2c1 [XX-038] |
| > 6.00 | 6.00 to 7.00 | COc1ccc(-c2cccc3nc(Nc4ccc(OCCCN)cc4)nn23)cc1 [XX-041, [4-(3-Amino-propoxy)-phenyl]-[5-(4-methoxy-phenyl)-[1,2,4]triazolo[1,5-a]pyridin-2-yl]-amine] |
| > 6.00 | 6.00 to 7.00 | COc1ccc(-c2cccc3nc(Nc4cccc(OCCCN)c4)nn23)cc1 [XX-045] |
| > 6.00 | 6.00 to 7.00 | CNCCOc1ccc(Nc2nc3cccc(-c4ccc5c(c4)OCO5)n3n2)cc1 [XX-049] |
| > 6.00 | 6.00 to 7.00 | c1cc(-c2ccc3c(c2)CCO3)n2nc(Nc3ccc(OCCN4CCCCC4)cc3)nc2c1 [XX-052] |
| > 6.00 | ≥ 7.00 | c1cc(-c2ccc3c(c2)OCCO3)n2nc(Nc3ccc(OCCN4CCCCC4)cc3)nc2c1 [XX-054] |
| > 6.00 | ≥ 7.00 | CN(C)CCOc1ccc(Nc2nc3cccc(-c4ccc5c(c4)OCCO5)n3n2)cc1 [XX-055] |
| 5.00 to 6.00 | 5.00 to 6.00 | COc1ccc(-c2cccc3nc(Nc4ccc(N(C)C)cc4)nn23)cc1 [XX-057] |
| > 6.00 | ≥ 7.00 | COc1ccc(-c2cccc3nc(Nc4ccc(OCCN(C)CCO)cc4)nn23)cc1 [XX-065] |
| > 6.00 | ≥ 7.00 | COc1ccc(-c2cccc3nc(Nc4ccc(OCCN5CCCC5)c(OC)c4)nn23)cc1 [XX-066] |
| > 6.00 | ≥ 7.00 | CNCCCOc1cccc(Nc2nc3cccc(-c4ccc5c(c4)OCCO5)n3n2)c1 [XX-069] |
